Some targets named below: Carbonic anhydrase 1 (Homo sapiens, UniProt P00915); Carbonic anhydrase 9 (Homo sapiens, UniProt Q16790); Carbonic anhydrase 12 (Homo sapiens, UniProt O43570); Carbonic anhydrase 2 (Homo sapiens, UniProt P00918).
Another assay relates to HT-29. Briefly: cells. The conditions noted are these: Homo sapiens, HT-29, 24 h. Type of assay: functional, cell-based.
The subject of a further assay is HEK-293T. Briefly: cells. Type of assay: ADME, cell-based. The following applies: Homo sapiens, 24 h.

pIC50, pKi: −log10 of the molar value.

Chain of Carbonic anhydrase 1 (P00915 whole entry): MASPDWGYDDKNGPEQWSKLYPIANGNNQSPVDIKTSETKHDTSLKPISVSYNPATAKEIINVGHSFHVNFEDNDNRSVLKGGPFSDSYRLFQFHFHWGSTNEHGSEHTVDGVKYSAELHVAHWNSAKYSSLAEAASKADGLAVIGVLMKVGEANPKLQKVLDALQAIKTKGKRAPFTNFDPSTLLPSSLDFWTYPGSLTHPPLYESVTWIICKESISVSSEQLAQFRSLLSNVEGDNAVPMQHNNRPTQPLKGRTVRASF
Chain of Carbonic anhydrase 12 (O43570 whole entry): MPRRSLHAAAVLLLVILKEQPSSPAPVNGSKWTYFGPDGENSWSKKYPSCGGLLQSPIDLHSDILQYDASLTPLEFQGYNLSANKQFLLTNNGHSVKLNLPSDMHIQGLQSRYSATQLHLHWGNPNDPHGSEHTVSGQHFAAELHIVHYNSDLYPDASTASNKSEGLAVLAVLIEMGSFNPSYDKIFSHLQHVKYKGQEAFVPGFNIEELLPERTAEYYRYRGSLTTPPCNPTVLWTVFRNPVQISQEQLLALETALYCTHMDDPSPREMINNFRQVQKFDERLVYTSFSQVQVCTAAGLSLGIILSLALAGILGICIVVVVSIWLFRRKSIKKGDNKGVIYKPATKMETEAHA
Description for Carbonic anhydrase 12: Inhibition of human carbonic anhydrase 12 incubated for 10 mins prior to testing measured for 5 to 10 secs by phenol red-based stopped-flow CO2 hydration assay
Description for Carbonic anhydrase 2: Inhibition of human carbonic anhydrase 2 incubated for 10 mins prior to testing measured for 5 to 10 secs by phenol red-based stopped-flow CO2 hydration assay
Description for Carbonic anhydrase 9: Inhibition of human carbonic anhydrase 9 incubated for 10 mins prior to testing measured for 5 to 10 secs by phenol red-based stopped-flow CO2 hydration assay
Description for HEK-293T: Cytotoxicity in HEK293T cells assessed as reduction in cell viability incubated for 24 hrs under hypoxic condition by MTT assay
Description for HT-29: Cytotoxicity in human HT-29 cells assessed as reduction in cell viability incubated for 24 hrs under hypoxic condition by MTT assay

With `C#CCOc1c(/C=N/Cc2ccc(S(N)(=O)=O)cc2)cccc1OC`, the pKi (as a rule, the negative decadic logarithm of the Ki, by convention in mol/L) at Carbonic anhydrase 1 was less than 5.00; at Carbonic anhydrase 9, 5.93. Also, the pIC50 – broadly, the negative decadic logarithm of the IC50, by convention in mol/L – in the assay with HT-29 is 4.09; in the assay on HEK-293T, 3.87.
Take `C#CCOc1ccc2ccccc2c1/C=N/Cc1ccc(S(N)(=O)=O)cc1`: the pKi at Carbonic anhydrase 1 was less than 5.00; at Carbonic anhydrase 9 it was 5.96. The compound further gave a pIC50 in the assay with HT-29 of 4.34.
`O=Cc1cc([N+](=O)[O-])ccc1OCc1cn(CCCOc2ccc3ccc(=O)oc3c2)nn1`: the pKi is less than 5.00 on Carbonic anhydrase 12, less than 5.00 on Carbonic anhydrase 1, less than 5.00 on Carbonic anhydrase 2 and 6.86 at Carbonic anhydrase 9. Also, the negative-log IC50 (pIC50) with HT-29 was 4.27.
As for `NS(=O)(=O)c1ccc(C/N=C/c2ccc(OCc3cn(CCCOc4ccc5ccc(=O)oc5c4)nn3)cc2)cc1`, the pKi is less than 5.00 on Carbonic anhydrase 1 and 6.77 at Carbonic anhydrase 9. The compound further gave a pIC50 in the assay with HT-29 of 3.90.
For `CCN(CC)c1ccc(C=O)c(OCc2cn(CCCOc3ccc4ccc(=O)oc4c3)nn2)c1`, the pKi was less than 5.00 at Carbonic anhydrase 12, less than 5.00 on Carbonic anhydrase 1, less than 5.00 at Carbonic anhydrase 2 and 6.80 at Carbonic anhydrase 9. In addition, the pIC50 in the assay with HT-29 is 5.04; in the assay with HEK-293T it was 4.72.
`COc1cccc(/C=N/Cc2ccc(S(N)(=O)=O)cc2)c1OCc1cn(CCCOc2ccc3ccc(=O)oc3c2)nn1`: the pKi at Carbonic anhydrase 1 was less than 5.00; on Carbonic anhydrase 9, 5.83. The negative logarithm of the IC50 (pIC50) with HT-29 is 4.28.
Taken in the same sequence, the figures for `C#CCOc1cccc(/C=N/Cc2ccc(S(N)(=O)=O)cc2)c1` were less than 5.00, 5.69 and 3.98.
As for `COc1cccc(C=O)c1OCc1cn(CCCOc2ccc3ccc(=O)oc3c2)nn1`, the pKi was less than 5.00 at Carbonic anhydrase 12, less than 5.00 at Carbonic anhydrase 1, less than 5.00 on Carbonic anhydrase 2 and 5.93 at Carbonic anhydrase 9. Besides, the pIC50 in the assay with HT-29 is 4.88; in the assay with HEK-293T, 4.52.
On to `C#CCOc1cc(N(CC)CC)ccc1/C=N/Cc1ccc(S(N)(=O)=O)cc1`, for which the values for the pKi at Carbonic anhydrase 1 and on Carbonic anhydrase 9 were less than 5.00 and 6.70, respectively. In addition, the pIC50 in the assay with HT-29 was 4.20.
With `CCN(CC)c1ccc(/C=N/Cc2ccc(S(N)(=O)=O)cc2)c(OCc2cn(CCCOc3ccc4ccc(=O)oc4c3)nn2)c1`, the pKi was less than 5.00 on Carbonic anhydrase 1 and 5.66 at Carbonic anhydrase 9. In addition, the pIC50 with HT-29 was 4.63; with HEK-293T it was 4.53.
Take `C#CCOc1ccc([N+](=O)[O-])cc1/C=N/Cc1ccc(S(N)(=O)=O)cc1`: the values for the pKi at Carbonic anhydrase 1 and at Carbonic anhydrase 9 were less than 5.00 and 6.67, respectively. In the assay on HT-29, this compound had a pIC50 of 4.46.
For `COc1cccc2c1C(=O)c1c(O)c3c(c(O)c1C2=O)C[C@@](O)(C(=O)CO)C[C@@H]3O[C@H]1C[C@H](N)[C@H](O)[C@H](C)O1` [DOXORUBICIN], the pIC50 was 5.27 in the assay with HT-29 and 5.98 with HEK-293T.
Regarding `C#CCOc1ccc(Br)cc1/C=N/Cc1ccc(S(N)(=O)=O)cc1`, the pKi is less than 5.00 at Carbonic anhydrase 1 and 6.72 on Carbonic anhydrase 9. In addition, in the assay on HT-29, the pIC50 is 4.34.
In the case of `C#CCOc1ccc(/C=N/Cc2ccc(S(N)(=O)=O)cc2)cc1OC`, the values for the pKi at Carbonic anhydrase 1 and at Carbonic anhydrase 9 were less than 5.00 and 7.09, respectively. Further, the pIC50 with HT-29 was 3.87; with HEK-293T, 3.27.
Take `C#CCOc1ccccc1/C=N/Cc1ccc(S(N)(=O)=O)cc1`: the pKi was less than 5.00 at Carbonic anhydrase 1 and 5.97 at Carbonic anhydrase 9. In the assay on HT-29, this compound showed a pIC50 of 4.51.
On to `NS(=O)(=O)c1ccc(C/N=C/c2c(OCc3cn(CCCOc4ccc5ccc(=O)oc5c4)nn3)ccc3ccccc23)cc1`, for which the pKi on Carbonic anhydrase 1 is less than 5.00; at Carbonic anhydrase 9 it was 7.34. The pIC50 was 4.77 with HT-29 and 3.93 with HEK-293T.
With `O=Cc1ccc(OCc2cn(CCCOc3ccc4ccc(=O)oc4c3)nn2)cc1`, the pKi at Carbonic anhydrase 12 is less than 5.00; on Carbonic anhydrase 1, less than 5.00; at Carbonic anhydrase 2 it was less than 5.00; at Carbonic anhydrase 9, 6.77. This compound had a pIC50 in the assay on HT-29 of 4.00.
In the case of `O=Cc1c(OCc2cn(CCCOc3ccc4ccc(=O)oc4c3)nn2)ccc2ccccc12`, the pKi at Carbonic anhydrase 12 was less than 5.00; on Carbonic anhydrase 1, less than 5.00; on Carbonic anhydrase 2, less than 5.00; on Carbonic anhydrase 9 it was 6.72. This compound gave a pIC50 in the assay with HT-29 of 3.83.
`NS(=O)(=O)c1ccc(C/N=C/c2ccccc2OCc2cn(CCCOc3ccc4ccc(=O)oc4c3)nn2)cc1`: the pKi at Carbonic anhydrase 1 is less than 5.00; on Carbonic anhydrase 9, 6.73. Moreover, the pIC50 is 4.84 in the assay on HT-29 and 4.86 in the assay with HEK-293T.
For the compound `COc1cc(C=O)ccc1OCc1cn(CCCOc2ccc3ccc(=O)oc3c2)nn1`, the negative logarithm of the Ki (pKi) at Carbonic anhydrase 12 was less than 5.00; at Carbonic anhydrase 1, less than 5.00; on Carbonic anhydrase 2, less than 5.00; on Carbonic anhydrase 9 it was 6.88. Moreover, the pIC50 in the assay on HT-29 was 4.18.
`O=Cc1ccccc1OCc1cn(CCCOc2ccc3ccc(=O)oc3c2)nn1`: the values for the pKi at Carbonic anhydrase 1 and on Carbonic anhydrase 9 were less than 5.00 and 6.89, respectively. The pIC50 with HT-29 was 4.72; with HEK-293T, 4.86.
Take `NS(=O)(=O)c1ccc(C/N=C/c2cccc(OCc3cn(CCCOc4ccc5ccc(=O)oc5c4)nn3)c2)cc1`: the pKi at Carbonic anhydrase 1 was less than 5.00; on Carbonic anhydrase 9, 6.02. In addition, the pIC50 in the assay with HT-29 is 3.97.
Taken in the same sequence, the figures for `COc1cc(/C=N/Cc2ccc(S(N)(=O)=O)cc2)ccc1OCc1cn(CCCOc2ccc3ccc(=O)oc3c2)nn1` were less than 5.00, 6.12 and 4.50.
With `C#CCOc1ccc(/C=N/Cc2ccc(S(N)(=O)=O)cc2)cc1`, the pKi on Carbonic anhydrase 1 is less than 5.00; on Carbonic anhydrase 9 it was 6.64. The pIC50 was 4.85 in the assay on HT-29 and 3.40 with HEK-293T.
Take `NS(=O)(=O)c1ccc(C/N=C/c2cc([N+](=O)[O-])ccc2OCc2cn(CCCOc3ccc4ccc(=O)oc4c3)nn2)cc1`: the pKi was less than 5.00 at Carbonic anhydrase 1 and 6.07 at Carbonic anhydrase 9. Further, in the assay on HT-29, the pIC50 is 3.93.
Consider `O=Cc1cc(Br)ccc1OCc1cn(CCCOc2ccc3ccc(=O)oc3c2)nn1`, for which the negative logarithm of the Ki (pKi) on Carbonic anhydrase 12 was less than 5.00; on Carbonic anhydrase 1, less than 5.00; at Carbonic anhydrase 2, less than 5.00; at Carbonic anhydrase 9 it was 6.71. The pIC50 in the assay with HT-29 is 5.13; in the assay with HEK-293T, 5.22.
Turning to `O=Cc1cccc(OCc2cn(CCCOc3ccc4ccc(=O)oc4c3)nn2)c1`, the pKi at Carbonic anhydrase 1 was less than 5.00; at Carbonic anhydrase 2, less than 5.00; at Carbonic anhydrase 9, 6.72. Further, in the assay on HT-29, the pIC50 is 3.89.
As to `NS(=O)(=O)c1ccc(C/N=C/c2cc(Br)ccc2OCc2cn(CCCOc3ccc4ccc(=O)oc4c3)nn2)cc1`, the values for the pKi at Carbonic anhydrase 1 and at Carbonic anhydrase 9 were less than 5.00 and 6.80, respectively. The pIC50 was 4.75 with HT-29 and 5.08 with HEK-293T.
